How the values were obtained:
[1] = Inhibition of 5HT receptor at 10 uM
[2] = biological target: T1, Sodium-dependent dopamine transporter (Homo sapiens, UniProt Q01959); assay: Binding affinity to DAT
[3] = biological target: T1, Sodium-dependent dopamine transporter; assay: Inhibition of DAT at 10 uM
[4] = Binding affinity to sigma 2 receptor
[5] = biological target: T2, Alpha-2C adrenergic receptor (Homo sapiens, UniProt P18825); assay: (§1) Binding affinity to Alpha2C adrenoceptor receptor
T2 sequence (P18825 whole entry): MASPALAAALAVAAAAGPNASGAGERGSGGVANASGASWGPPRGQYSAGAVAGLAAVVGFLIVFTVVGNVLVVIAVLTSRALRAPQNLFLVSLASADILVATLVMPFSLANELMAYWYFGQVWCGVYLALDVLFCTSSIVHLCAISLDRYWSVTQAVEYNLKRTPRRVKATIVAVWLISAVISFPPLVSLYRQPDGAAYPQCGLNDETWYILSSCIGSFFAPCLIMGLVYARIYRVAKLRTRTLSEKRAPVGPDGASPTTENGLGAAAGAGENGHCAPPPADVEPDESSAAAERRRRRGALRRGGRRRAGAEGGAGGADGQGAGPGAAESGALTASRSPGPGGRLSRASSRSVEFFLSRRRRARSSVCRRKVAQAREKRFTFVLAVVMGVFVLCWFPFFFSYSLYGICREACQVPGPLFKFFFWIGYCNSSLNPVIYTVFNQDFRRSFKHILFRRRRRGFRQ

[6] = biological target: Sigma non-opioid intracellular receptor 1 (Homo sapiens, UniProt Q99720); assay: Binding affinity to sigma 1 receptor
[7] = biological target: T3, Alpha-2C adrenergic receptor (Homo sapiens) (UniProt P18825); assay: Inhibition of Alpha2C adrenoceptor receptor at 10 uM
T3 sequence (whole entry): T2 sequence (P18825 whole entry)

[8] = Selectivity, ratio of Ki for sigma 1 to Ki for sigma 2
[9] = biological target: 5-hydroxytryptamine receptor 2C (Homo sapiens) (UniProt P28335); assay: Inhibition of 5HT2C receptor at 10 uM
[10] = Inhibition of Ca2+ channel at 10 uM
[11] = biological target: 5-hydroxytryptamine receptor 6 (Homo sapiens) (UniProt P50406); assay: Inhibition of 5HT6 receptor at 10 uM
[12] = biological target: 5-hydroxytryptamine receptor 7 (Homo sapiens) (UniProt P34969); assay: Inhibition of 5HT7 receptor at 10 uM
[13] = biological target: Alpha-1B adrenergic receptor (Homo sapiens) (UniProt P35368); assay: Inhibition of Alpha1B adrenoceptor receptor at 10 uM
[14] = biological target: 5-hydroxytryptamine receptor 1B (Homo sapiens) (UniProt P28222); assay: Inhibition of 5HT1B receptor at 10 uM
[15] = Inhibition of phencyclidine binding site of NMDA receptor at 10 uM
[16] = biological target: Cannabinoid receptor 2 (Homo sapiens) (UniProt P34972); assay: Inhibition of CB2 receptor at 10 uM
[17] = biological target: Histamine H1 receptor (Homo sapiens) (UniProt P35367); assay: Inhibition of histamine H1 receptor at 10 uM
[18] = biological target: 5-hydroxytryptamine receptor 2B (Homo sapiens) (UniProt P41595); assay: Inhibition of 5HT2B receptor at 10 uM
[19] = biological target: 5-hydroxytryptamine receptor 5A (Homo sapiens) (UniProt P47898); assay: Inhibition of 5HT5A receptor at 10 uM
[20] = biological target: 5-hydroxytryptamine receptor 1E (Homo sapiens) (UniProt P28566); assay: Inhibition of 5HT1E receptor at 10 uM
[21] = biological target: Histamine H2 receptor (Homo sapiens) (UniProt P25021); assay: Inhibition of histamine H2 receptor at 10 uM
[22] = biological target: 5-hydroxytryptamine receptor 1D (Homo sapiens) (UniProt P28221); assay: Inhibition of 5HT1D receptor at 10 uM
[23] = biological target: Beta-2 adrenergic receptor (Homo sapiens) (UniProt P07550); assay: Inhibition of beta2 adrenoceptor receptor at 10 uM
[24] = biological target: 5-hydroxytryptamine receptor 3A (Homo sapiens) (UniProt P46098); assay: Inhibition of 5HT3 receptor at 10 uM
[25] = biological target: Beta-1 adrenergic receptor (Homo sapiens) (UniProt P08588); assay: Inhibition of beta-1 adrenoceptor receptor at 10 uM
[26] = biological target: Histamine H4 receptor (Homo sapiens) (UniProt Q9H3N8); assay: Inhibition of histamine H4 receptor at 10 uM
[27] = biological target: Delta-type opioid receptor (Homo sapiens) (UniProt P41143); assay: Inhibition of Delta opioid receptor at 10 uM
[28] = biological target: 5-hydroxytryptamine receptor 2A (Homo sapiens) (UniProt P28223); assay: Inhibition of 5HT2A receptor at 10 uM
[29] = biological target: Kappa-type opioid receptor (Homo sapiens) (UniProt P41145); assay: Inhibition of Kappa opioid receptor at 10 uM
[30] = biological target: D(1A) dopamine receptor (Homo sapiens) (UniProt P21728); assay: Inhibition of D1 receptor at 10 uM
[31] = biological target: Cannabinoid receptor 1 (Homo sapiens) (UniProt P21554); assay: Inhibition of CB1 receptor at 10 uM
[32] = biological target: 5-hydroxytryptamine receptor 1A (Homo sapiens) (UniProt P08908); assay: Inhibition of 5HT1A receptor at 10 uM
[33] = biological target: Alpha-2B adrenergic receptor (Homo sapiens) (UniProt P18089); assay: Inhibition of Alpha2B adrenoceptor receptor at 10 uM
[34] = biological target: Alpha-2A adrenergic receptor (Homo sapiens) (UniProt P08913); assay: Inhibition of Alpha2A adrenoceptor receptor at 10 uM
[35] = biological target: Alpha-1A adrenergic receptor (Homo sapiens) (UniProt P35348); assay: Inhibition of Alpha1A adrenoceptor receptor at 10 uM
[36] = biological target: Mu-type opioid receptor (Homo sapiens) (UniProt P35372); assay: Inhibition of mu opioid receptor at 10 uM
[37] = biological target: D(2) dopamine receptor (Homo sapiens) (UniProt P14416); assay: Inhibition of D2 receptor at 10 uM
[38] = biological target: Histamine H3 receptor (Homo sapiens) (UniProt Q9Y5N1); assay: Inhibition of histamine H3 receptor at 10 uM
[39] = biological target: T4, Sodium-dependent noradrenaline transporter (Homo sapiens, UniProt P23975); assay: Inhibition of NET at 10 uM
[40] = biological target: 5-hydroxytryptamine receptor 1A (Homo sapiens, UniProt P08908); assay: Binding affinity to 5HT1A receptor
[41] = biological target: 5-hydroxytryptamine receptor 4 (Homo sapiens) (UniProt Q13639); assay: Inhibition of 5HT4 receptor at 10 uM
[42] = biological target: T2, Alpha-2C adrenergic receptor; assay: as §1; remark: listed apart in the source
[43] = biological target: T4, Sodium-dependent noradrenaline transporter; assay: Binding affinity to NET

T1 sequence (Q01959 whole entry): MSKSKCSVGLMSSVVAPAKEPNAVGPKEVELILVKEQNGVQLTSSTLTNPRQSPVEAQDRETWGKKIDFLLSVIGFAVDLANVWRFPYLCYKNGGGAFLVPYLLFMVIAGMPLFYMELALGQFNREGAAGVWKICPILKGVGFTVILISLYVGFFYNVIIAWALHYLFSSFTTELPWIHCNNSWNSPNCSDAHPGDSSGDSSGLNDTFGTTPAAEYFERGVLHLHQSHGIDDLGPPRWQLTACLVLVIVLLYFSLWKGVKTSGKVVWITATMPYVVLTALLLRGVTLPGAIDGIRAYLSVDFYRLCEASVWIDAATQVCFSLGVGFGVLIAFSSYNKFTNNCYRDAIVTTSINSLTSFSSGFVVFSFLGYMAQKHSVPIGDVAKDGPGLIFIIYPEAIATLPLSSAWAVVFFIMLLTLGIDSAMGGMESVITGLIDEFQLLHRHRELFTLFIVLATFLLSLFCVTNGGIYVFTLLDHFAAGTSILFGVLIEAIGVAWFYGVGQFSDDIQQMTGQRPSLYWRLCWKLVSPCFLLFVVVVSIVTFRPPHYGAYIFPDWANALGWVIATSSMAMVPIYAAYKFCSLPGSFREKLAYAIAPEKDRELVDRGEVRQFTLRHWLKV
Sigma non-opioid intracellular receptor 1, sequence (Q99720 whole entry): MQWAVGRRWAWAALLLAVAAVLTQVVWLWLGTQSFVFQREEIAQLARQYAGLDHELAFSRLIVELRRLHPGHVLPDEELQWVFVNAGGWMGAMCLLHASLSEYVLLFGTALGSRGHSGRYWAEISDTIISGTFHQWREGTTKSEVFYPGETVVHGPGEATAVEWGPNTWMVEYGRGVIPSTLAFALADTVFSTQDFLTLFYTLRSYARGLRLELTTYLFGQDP
5-hydroxytryptamine receptor 5A (Homo sapiens), sequence (P47898 whole entry): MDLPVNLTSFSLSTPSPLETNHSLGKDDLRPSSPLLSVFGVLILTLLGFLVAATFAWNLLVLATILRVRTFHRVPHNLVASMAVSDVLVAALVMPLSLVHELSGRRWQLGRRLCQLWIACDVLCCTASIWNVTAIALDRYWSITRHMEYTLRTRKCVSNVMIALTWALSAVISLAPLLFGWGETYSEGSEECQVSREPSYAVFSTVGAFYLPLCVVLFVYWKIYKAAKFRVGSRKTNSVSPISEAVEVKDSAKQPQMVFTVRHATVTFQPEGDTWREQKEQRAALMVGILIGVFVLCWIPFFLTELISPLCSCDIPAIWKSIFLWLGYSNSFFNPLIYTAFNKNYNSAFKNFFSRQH
D(1A) dopamine receptor (Homo sapiens), sequence (P21728 whole entry): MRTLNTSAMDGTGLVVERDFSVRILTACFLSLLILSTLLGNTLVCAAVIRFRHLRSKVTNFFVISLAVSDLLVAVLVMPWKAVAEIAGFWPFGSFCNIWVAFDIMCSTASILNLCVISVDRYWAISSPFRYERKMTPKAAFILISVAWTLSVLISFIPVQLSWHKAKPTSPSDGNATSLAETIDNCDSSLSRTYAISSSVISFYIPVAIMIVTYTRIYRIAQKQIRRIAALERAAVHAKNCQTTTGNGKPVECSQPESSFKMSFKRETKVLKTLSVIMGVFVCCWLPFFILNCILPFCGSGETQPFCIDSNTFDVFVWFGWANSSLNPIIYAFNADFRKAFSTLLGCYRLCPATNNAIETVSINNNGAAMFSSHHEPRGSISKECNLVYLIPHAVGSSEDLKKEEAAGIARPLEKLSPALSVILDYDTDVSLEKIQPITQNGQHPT
Mu-type opioid receptor (Homo sapiens), sequence (P35372 whole entry): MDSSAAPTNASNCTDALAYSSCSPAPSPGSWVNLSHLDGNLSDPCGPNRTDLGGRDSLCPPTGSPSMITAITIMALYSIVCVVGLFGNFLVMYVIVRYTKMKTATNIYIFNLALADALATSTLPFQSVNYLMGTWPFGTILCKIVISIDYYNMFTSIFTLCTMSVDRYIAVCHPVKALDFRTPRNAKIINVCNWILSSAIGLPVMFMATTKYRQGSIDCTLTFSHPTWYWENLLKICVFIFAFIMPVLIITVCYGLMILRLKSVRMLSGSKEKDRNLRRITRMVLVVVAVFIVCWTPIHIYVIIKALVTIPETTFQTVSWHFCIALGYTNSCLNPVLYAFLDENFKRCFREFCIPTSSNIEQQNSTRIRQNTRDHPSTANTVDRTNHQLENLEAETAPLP
5-hydroxytryptamine receptor 2B (Homo sapiens), sequence (P41595 whole entry): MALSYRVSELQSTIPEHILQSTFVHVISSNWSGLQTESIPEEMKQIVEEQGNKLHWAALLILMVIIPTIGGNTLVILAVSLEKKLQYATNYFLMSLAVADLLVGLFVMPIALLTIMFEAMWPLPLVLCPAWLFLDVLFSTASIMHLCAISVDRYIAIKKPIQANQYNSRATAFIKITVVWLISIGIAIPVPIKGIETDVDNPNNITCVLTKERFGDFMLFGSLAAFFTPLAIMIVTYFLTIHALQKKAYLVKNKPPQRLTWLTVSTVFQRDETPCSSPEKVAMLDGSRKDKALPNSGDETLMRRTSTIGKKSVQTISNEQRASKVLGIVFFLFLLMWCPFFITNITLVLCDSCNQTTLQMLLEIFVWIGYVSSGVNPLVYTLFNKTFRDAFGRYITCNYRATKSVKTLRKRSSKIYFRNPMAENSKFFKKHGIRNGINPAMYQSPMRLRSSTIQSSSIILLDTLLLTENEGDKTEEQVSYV
5-hydroxytryptamine receptor 6 (Homo sapiens), sequence (P50406 whole entry): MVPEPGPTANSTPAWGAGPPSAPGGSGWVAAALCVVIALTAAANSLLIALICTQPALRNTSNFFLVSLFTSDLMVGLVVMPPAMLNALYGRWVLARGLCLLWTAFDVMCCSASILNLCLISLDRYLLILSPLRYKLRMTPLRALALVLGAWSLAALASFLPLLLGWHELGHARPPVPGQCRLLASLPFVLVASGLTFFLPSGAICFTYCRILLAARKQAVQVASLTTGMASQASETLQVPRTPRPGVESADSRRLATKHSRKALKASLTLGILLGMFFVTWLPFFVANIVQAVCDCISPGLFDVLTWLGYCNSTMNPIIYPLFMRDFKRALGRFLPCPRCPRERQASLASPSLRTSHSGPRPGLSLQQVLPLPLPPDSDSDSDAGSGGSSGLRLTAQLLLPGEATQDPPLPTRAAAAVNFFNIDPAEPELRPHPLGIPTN
5-hydroxytryptamine receptor 7 (Homo sapiens), sequence (P34969 whole entry): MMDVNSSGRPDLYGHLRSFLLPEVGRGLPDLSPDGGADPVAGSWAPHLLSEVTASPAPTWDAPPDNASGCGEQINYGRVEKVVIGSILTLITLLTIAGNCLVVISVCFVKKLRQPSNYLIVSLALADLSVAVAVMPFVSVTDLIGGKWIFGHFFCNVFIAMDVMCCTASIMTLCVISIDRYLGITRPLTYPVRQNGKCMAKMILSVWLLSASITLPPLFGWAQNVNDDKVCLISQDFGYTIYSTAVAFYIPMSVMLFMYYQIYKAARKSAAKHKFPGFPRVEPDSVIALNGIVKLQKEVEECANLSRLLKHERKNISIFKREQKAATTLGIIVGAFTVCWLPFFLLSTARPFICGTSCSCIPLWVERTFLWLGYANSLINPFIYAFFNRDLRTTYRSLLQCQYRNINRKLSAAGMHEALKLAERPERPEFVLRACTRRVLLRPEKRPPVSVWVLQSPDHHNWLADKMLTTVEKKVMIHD
Cannabinoid receptor 2 (Homo sapiens), sequence (P34972 whole entry): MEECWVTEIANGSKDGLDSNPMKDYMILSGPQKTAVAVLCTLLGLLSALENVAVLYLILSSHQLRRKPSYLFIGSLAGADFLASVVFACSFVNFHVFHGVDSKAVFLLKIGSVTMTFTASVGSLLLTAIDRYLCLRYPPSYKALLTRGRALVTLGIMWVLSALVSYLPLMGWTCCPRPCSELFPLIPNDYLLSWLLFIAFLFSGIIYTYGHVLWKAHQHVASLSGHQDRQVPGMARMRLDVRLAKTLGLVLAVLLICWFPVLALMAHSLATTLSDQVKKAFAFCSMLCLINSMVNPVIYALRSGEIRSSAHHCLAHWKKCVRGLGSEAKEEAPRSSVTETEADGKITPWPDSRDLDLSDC
Histamine H1 receptor (Homo sapiens), sequence (P35367 whole entry): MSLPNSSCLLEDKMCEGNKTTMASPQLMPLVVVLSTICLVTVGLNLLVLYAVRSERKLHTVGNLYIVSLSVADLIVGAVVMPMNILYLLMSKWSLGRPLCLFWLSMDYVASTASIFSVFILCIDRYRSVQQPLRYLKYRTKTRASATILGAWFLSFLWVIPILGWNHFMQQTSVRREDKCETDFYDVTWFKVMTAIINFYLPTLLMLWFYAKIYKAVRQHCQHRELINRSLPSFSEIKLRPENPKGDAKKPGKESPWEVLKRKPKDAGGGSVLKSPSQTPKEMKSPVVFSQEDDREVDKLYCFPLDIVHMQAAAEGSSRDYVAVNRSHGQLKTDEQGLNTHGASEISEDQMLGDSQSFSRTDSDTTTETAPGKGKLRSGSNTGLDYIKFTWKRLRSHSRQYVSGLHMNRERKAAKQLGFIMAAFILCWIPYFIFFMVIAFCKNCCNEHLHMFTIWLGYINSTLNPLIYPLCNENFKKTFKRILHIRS
Beta-1 adrenergic receptor (Homo sapiens), sequence (P08588 whole entry, looked up): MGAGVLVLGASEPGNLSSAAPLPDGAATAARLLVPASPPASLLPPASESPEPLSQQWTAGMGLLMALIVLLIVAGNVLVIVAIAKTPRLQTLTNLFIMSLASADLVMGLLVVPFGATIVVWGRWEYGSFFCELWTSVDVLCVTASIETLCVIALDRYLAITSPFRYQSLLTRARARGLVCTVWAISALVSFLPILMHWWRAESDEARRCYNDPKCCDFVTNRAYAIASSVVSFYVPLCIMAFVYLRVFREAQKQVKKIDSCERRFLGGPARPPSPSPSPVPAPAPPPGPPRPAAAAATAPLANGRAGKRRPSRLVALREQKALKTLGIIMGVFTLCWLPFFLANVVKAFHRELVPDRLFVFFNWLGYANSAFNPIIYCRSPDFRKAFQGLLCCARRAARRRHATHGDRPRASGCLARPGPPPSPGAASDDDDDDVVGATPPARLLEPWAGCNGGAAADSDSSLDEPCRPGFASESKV

`OC12C3C4CC5C6C4C1C6C(C53)N2CCc1cccc(F)c1` (stereo not drawn) gave an inhibition [1] of under 50%, a Ki [2] of over 10000 nM and an inhibition [3] of under 50%. It also gave a Ki [4] of 48 nM, a Ki [5] of over 10000 nM and a Ki [6] of 12 nM. It also gave an inhibition [7] of under 50% and a Ratio [8] of 0.25.

Compound `Fc1cccc(CNC23OC4C5C6CC(C7C6C4C72)C53)c1` (stereo not drawn) has an inhibition [9] of under 50%, an inhibition [10] of under 50% and an inhibition [1] of under 50%. The inhibition [11] was under 50%, the inhibition [12] was under 50% and the inhibition [13] was under 50%. The Ki [2] was over 10000 nM, the inhibition [14] was under 50% and the inhibition [3] was under 50%. It also gave an inhibition [15] of under 50%, a Ki [4] of 1640 nM and an inhibition [16] of under 50%. The inhibition [17] was under 50%, the inhibition [18] was under 50% and the inhibition [19] was under 50%. For the same compound, the inhibition [20] was under 50%, the inhibition [21] was under 50% and the inhibition [22] was under 50%. The Ki [6] was 2280 nM, the inhibition [7] was under 50% and the inhibition [23] was under 50%. The inhibition [24] was under 50%, the inhibition [25] was under 50% and the inhibition [26] was under 50%. For the same compound, the inhibition [27] was under 50%, the inhibition [28] was under 50% and the inhibition [29] was under 50%. For the same compound, the inhibition [30] was under 50%, the inhibition [31] was under 50% and the inhibition [32] was under 50%. The inhibition [33] was under 50%, the inhibition [34] was under 50% and the inhibition [35] was under 50%. For the same compound, the Ratio [8] was 1.39, the inhibition [36] was under 50% and the inhibition [37] was under 50%. For the same compound, the inhibition [38] was under 50% and the inhibition [39] was under 50%.

Work on `OC12C3C4CC5C6C4C1C6C(C53)N2Cc1cccc(F)c1` (stereo not drawn) yielded an inhibition [1] of under 50%, a Ki [2] of over 10000 nM and an inhibition [3] of under 50%. It also gave a Ki [4] of 31 nM, a Ki [5] of over 10000 nM and a Ki [6] of 153 nM. For the same compound, the inhibition [7] was under 50% and the Ratio [8] was 4.94.

`Fc1cccc(CCNC23OC4C5C6CC(C7C6C4C72)C53)c1` (stereo not drawn) gave an inhibition [9] of under 50%, an inhibition [10] of under 50% and a Ki [40] of over 10000 nM. The inhibition [1] was under 50%, the inhibition [11] was under 50% and the inhibition [12] was under 50%. The inhibition [13] was under 50%, the Ki [2] was 137 nM and the inhibition [14] was under 50%. The inhibition [15] was under 50%, the Ki [4] was 363 nM and the inhibition [16] was under 50%. For the same compound, the inhibition [17] was under 50%, the inhibition [18] was under 50% and the inhibition [19] was under 50%. The inhibition [20] was under 50%, the inhibition [21] was under 50% and the Ki [5] was 20 nM. It also gave an inhibition [22] of under 50%, a Ki [6] of 149 nM and an inhibition [41] of under 50%. The inhibition [23] was under 50%, the Ki [42] was 20 nM and the inhibition [24] was under 50%. For the same compound, the inhibition [25] was under 50%, the inhibition [26] was under 50% and the Ki [43] was over 10000 nM. It also gave an inhibition [27] of under 50%, an inhibition [28] of under 50% and an inhibition [29] of under 50%. The inhibition [30] was under 50%, the inhibition [31] was under 50% and the inhibition [33] was under 50%. For the same compound, the inhibition [34] was under 50%, the inhibition [35] was under 50% and the Ratio [8] was 0.41. The inhibition [36] was under 50%, the inhibition [37] was under 50% and the inhibition [38] was under 50%.
